According to patent US9487511B2, “Cyclopropanamine compound and use thereof” (Takeda Pharmaceutical Company Limited, priority 2014, dated 2016):
Counter-ions that a name gives are not always drawn. Like-named read-outs stand apart in the source and are kept apart here.

Assays:
MAO-A enzyme = MAO-A enzyme (Homo sapiens (Human), UniProt P21397); test: Measurement of MAO-A inhibitory activity (MAO-Glo Assay); format: biochemical
Method: The MAO-A inhibitory activity evaluation described below followed the protocol of MAO-Glo (registered trademark) Assay of Promega KK.
A test compound dissolved in DMSO was added to a reaction solution (100 mM HEPES (pH 7.5), 5% glycerol) containing MAO-A enzyme (Sigma-Aldrich Co. LLC.), and the mixture was reacted at room temperature for 15 min. MAO substrate (Promega KK) was added to start the reaction. After reaction at room temperature for 60 min, Luciferine detection reagent (Promega KK) was added to terminate the reaction. After reaction at room temperature for 20 min with stirring, the luminescence was measured by Envision (PerkinElmer). The MAO-A inhibitory rate (%) of the test compound was calculated by the following formula. inhibitory rate (%)=(1−(test compound count−blank)÷(control−blank))×100
The count of the MAO-A enzyme reaction mixture under compound non-addition conditions is indicated as control, and the count under compound non-addition and MAO-A enzyme non-addition conditions is indicated as blank.

MAO-B enzyme = MAO-B enzyme (Homo sapiens (Human), UniProt P27338); test: Measurement of MAO-B inhibitory activity (MAO-Glo Assay); format: biochemical
Method: The MAO-B inhibitory activity evaluation described below followed the protocol of MAO-Glo (registered trademark) Assay of Promega KK.
A test compound dissolved in DMSO was added to a reaction solution (100 mM HEPES (pH 7.5), 5% glycerol, 10% DMSO) containing MAO-B enzyme (Sigma-Aldrich Co. LLC.), and the mixture was reacted at room temperature for 15 min. MAO substrate (Promega KK) was added to start the reaction. After reaction at room temperature for 60 min, Luciferine detection reagent (Promega KK) (50 μL) was added to terminate the reaction. After reaction at room temperature for 20 min with stirring, the luminescence was measured by Envision (PerkinElmer). The MAO-B inhibitory rate (%) of the test compound was calculated by the following formula. inhibitory rate (%)=(1−(test compound count−blank)÷(control−blank))×100
The count of the MAO-B enzyme reaction mixture under compound non-addition conditions is indicated as control, and the count under compound non-addition and MAO-B enzyme non-addition conditions is indicated as blank.

human LSD1(172-833) = human LSD1(172-833) (Homo sapiens (Human), UniProt O60341); test: Measurement of LSD1 inhibitory activity (time-resolved fluorescence, biotin-histone H3 mono methylated K4 peptide); format: biochemical; conditions: 60 min preincubation with enzyme at room temperature;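 also: after the compound–enzyme step, substrate reaction 5 min at room temperature in Tris-HCl pH 8.0 with BSA and DTT, halted by 2-PCPA, detected with europium anti-histone H3 antibody plus Streptavidin-XL665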
Method: A test compound dissolved in DMSO was added by to a reaction solution (50 mM Tris-HCl (pH 8.0), 0.1% BSA, 1 mM DTT) containing LSD1 enzyme, and the mixture was reacted at room temperature for 60 min. […] After reaction at room temperature for 5 min, 2-PCPA solution was added to terminate the reaction. A detection solution (800 mM potassium fluoride, 0.1% BSA) containing europium-labeled anti-histone H3 antibody (Wako Pure Chemical Industries, Ltd.) and Streptavidin-XL665 (Cisbio) was further added, and the mixture was left standing for 60 min. […] The LSD1 inhibitory rate (%) of the test compound was calculated by the following formula. inhibitory rate (%)=(1−(test compound count−blank)÷(control−blank))×100
The count of the LSD1 enzyme reaction mixture under compound non-addition conditions is indicated as control, and the count under compound non-addition and LSD1 enzyme non-addition conditions is indicated as blank. A concentration necessary for achieving 50% inhibitory rate was taken as ICH value.

[1] = Evaluation of hippocampal distribution in mouse; format: in vivo; conditions: male, ICR, mouse, po, 10 mg/kg, male ICR mice, 10 mg/kg oral, 1 h after administration
[2] = Evaluation of blood cell number in mouse; format: in vivo; conditions: male ICR mice, oral, repeated 7 or 9 days
Method: All compounds were repeatedly administered to the mice at a dose of 1 mg/kg, 10 mg/kg or 100 mg/kg (body weight) for 7 or 9 days. One day after the final administration of the compound, the whole blood was collected.
Using Sysmex XT-1800i (Sysmex Corporation), the white blood cell number, red blood cell number, and platelet number in the collected whole blood per unit volume were measured. The influence of each compound on each blood cell number was determined by calculating the number with the mean of each blood cell number of the mouse without administration of the compound (0 mg/kg group), and the mean of each blood cell number in the whole blood of a mouse with the administration of the compound.

[3] = hippocampus, read-out: Concentration Hippocampus, Mean
[4] = plasma, read-out: Concentration Plasma, Mean

Chain of MAO-B enzyme (P27338 whole entry): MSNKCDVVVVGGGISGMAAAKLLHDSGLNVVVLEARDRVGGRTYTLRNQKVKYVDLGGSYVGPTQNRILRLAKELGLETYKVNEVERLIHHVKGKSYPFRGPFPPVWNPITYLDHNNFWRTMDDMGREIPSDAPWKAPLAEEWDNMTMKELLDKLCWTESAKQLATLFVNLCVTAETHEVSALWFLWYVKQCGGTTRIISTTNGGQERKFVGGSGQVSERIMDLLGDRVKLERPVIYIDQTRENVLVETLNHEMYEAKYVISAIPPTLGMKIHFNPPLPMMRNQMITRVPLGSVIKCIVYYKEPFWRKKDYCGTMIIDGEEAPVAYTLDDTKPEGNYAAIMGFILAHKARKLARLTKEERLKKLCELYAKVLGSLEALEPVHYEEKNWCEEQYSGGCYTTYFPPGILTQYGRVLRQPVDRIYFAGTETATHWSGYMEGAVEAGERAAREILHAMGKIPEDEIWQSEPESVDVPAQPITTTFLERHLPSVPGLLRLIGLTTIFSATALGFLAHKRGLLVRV
Chain of MAO-A enzyme (P21397 whole entry): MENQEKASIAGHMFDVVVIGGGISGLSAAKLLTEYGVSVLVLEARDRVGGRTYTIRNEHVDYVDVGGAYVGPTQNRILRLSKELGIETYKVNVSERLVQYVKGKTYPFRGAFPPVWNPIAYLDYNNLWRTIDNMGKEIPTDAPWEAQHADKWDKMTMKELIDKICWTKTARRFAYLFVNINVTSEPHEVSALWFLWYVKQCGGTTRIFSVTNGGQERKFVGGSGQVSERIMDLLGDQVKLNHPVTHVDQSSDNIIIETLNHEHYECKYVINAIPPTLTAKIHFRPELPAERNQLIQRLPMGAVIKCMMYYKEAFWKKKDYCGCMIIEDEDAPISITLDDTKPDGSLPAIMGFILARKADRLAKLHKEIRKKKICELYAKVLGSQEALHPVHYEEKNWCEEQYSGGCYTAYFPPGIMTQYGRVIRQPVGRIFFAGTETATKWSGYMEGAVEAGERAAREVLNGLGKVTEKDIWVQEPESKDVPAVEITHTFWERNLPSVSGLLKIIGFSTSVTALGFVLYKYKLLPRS

| Structure (SMILES) | IC50 (MAO-A enzyme) | IC50 (MAO-B enzyme) | IC50 (human LSD1(172-833)) | also measured |
| --- | --- | --- | --- | --- |
| O=C(NC1CCC(F)(F)CC1)c1csc([C@@H]2C[C@H]2NCC2CCOCC2)c1 [Example 51, N-(4,4-difluorocyclohexyl)-5-((1R,2R)-2-((tetrahydro-2H-pyran-4-ylmethyl)amino)cyclopropyl)thiophene-3-carboxamide hydrochloride] | > 100 µM | > 100 µM | < 0.1 µM |  |
| O=C(NC1CCN(CC(F)(F)F)CC1)c1csc([C@@H]2C[C@H]2NCC2CCOCC2)c1 [Example 52, 5-((1R,2R)-2-((tetrahydro-2H-pyran-4-ylmethyl)amino)cyclopropyl)-N-(1-(2,2,2-trifluoroethyl)piperidin-4-yl)thiophene-3-carboxamide hydrochloride] | > 100 µM | > 100 µM | < 0.1 µM |  |
| Cc1ncc(NC(=O)c2csc([C@@H]3C[C@H]3NCC3CCOCC3)c2)s1 [Example 53, N-(2-methyl-1,3-thiazol-5-yl)-5-((1R,2R)-2-((tetrahydro-2H-pyran-4-ylmethyl)amino)cyclopropyl)thiophene-3-carboxamide dihydrochloride] | 61 µM | 96 µM | < 0.1 µM |  |
| Cc1nn(C)cc1NC(=O)c1csc([C@@H]2C[C@H]2NCC2CCOCC2)c1 [Example 54, N-(1,3-dimethyl-1H-pyrazol-4-yl)-5-((1R,2R)-2-((tetrahydro-2H-pyran-4-ylmethyl)amino)cyclopropyl)thiophene-3-carboxamide dihydrochloride] | > 100 µM | > 100 µM | < 0.1 µM |  |
| Cc1c(NC(=O)c2csc([C@@H]3C[C@H]3NCC3CCOCC3)c2)cnn1C [Example 55, N-(1,5-dimethyl-1H-pyrazol-4-yl)-5-((1R,2R)-2-((tetrahydro-2H-pyran-4-ylmethyl)amino)cyclopropyl)thiophene-3-carboxamide dihydrochloride] | > 100 µM | > 100 µM | < 0.1 µM |  |
| O=C(NC1CC1)c1csc([C@@H]2C[C@H]2NCC2CCOCC2)c1 [Example 56, N-cyclopropyl-5-((1R,2R)-2-((tetrahydro-2H-pyran-4-ylmethyl)amino)cyclopropyl)thiophene-3-carboxamide hydrochloride] | > 100 µM | > 100 µM | < 0.1 µM |  |
| Cc1nnc(NC(=O)c2csc([C@@H]3C[C@H]3NCC3CCN(CCC(=O)O)CC3)c2)s1 [Example 60, 3-(4-((((1R,2R)-2-(4-((5-methyl-1,3,4-thiadiazol-2-yl)carbamoyl)-2-thienyl)cyclopropyl)amino)methyl)piperidin-1-yl)propanoic acid trihydrochloride] | > 100 µM | > 100 µM | < 0.1 µM |  |
| O=C(NC1CCOCC1)c1csc([C@@H]2C[C@H]2NCC2CC2)c1 [Example 71, 5-((1R,2R)-2-((cyclopropylmethyl)amino)cyclopropyl)-N-(tetrahydro-2H-pyran-4-yl)thiophene-3-carboxamide hydrochloride] |  |  |  | concentration at 1 h [1, 3]: 82 ng/g; concentration at 1 h [1, 4]: 229 ng/mL; Platelets, Mean ([2]; 1 mg/kg): 1178 10^3 cells; Red blood cells, Mean ([2]; 1 mg/kg): 873 10^4 cells; White blood cells, Mean ([2]; 1 mg/kg): 275 10 cells; Platelets, Mean ([2]; 10 mg/kg): 1197 10^3 cells; Red blood cells, Mean ([2]; 10 mg/kg): 817 10^4 cells; White blood cells, Mean ([2]; 10 mg/kg): 276 10 cells; Platelets, Mean ([2]; 100 mg/kg): 1322 10^3 cells; Red blood cells, Mean ([2]; 100 mg/kg): 853 10^4 cells; White blood cells, Mean ([2]; 100 mg/kg): 323 10 cells |
| Cc1nnc(NC(=O)c2cc([C@H]3C[C@@H]3NCC3CCOCC3)cs2)s1 [Example 74, N-(5-methyl-1,3,4-thiadiazol-2-yl)-4-((1R,2S)-2-((tetrahydro-2H-pyran-4-ylmethyl)amino)cyclopropyl)thiophene-2-carboxamide hydrochloride] | > 100 µM | > 100 µM | < 0.1 µM |  |
| O=C(NC1CCC(F)(F)CC1)c1csc([C@@H]2C[C@H]2NC2CCN(C3CC3)CC2)c1 [Example 80, 5-((1R,2R)-2-((1-cyclopropylpiperidin-4-yl)amino)cyclopropyl)-N-(4,4-difluorocyclohexyl)thiophene-3-carboxamide hydrochloride] | > 100 µM | > 100 µM | < 0.1 µM |  |
| Cc1cc(NC(=O)c2csc([C@@H]3C[C@H]3NCC3CCOCC3)c2)no1 [Example 81, N-(5-methyl-1,2-oxazol-3-yl)-5-((1R,2R)-2-((tetrahydro-2H-pyran-4-ylmethyl)amino)cyclopropyl)thiophene-3-carboxamide hydrochloride] | 36 µM | > 100 µM | < 0.1 µM |  |
| Cc1nnc(NC(=O)c2cc([C@@H]3C[C@H]3NCC3CC3)cs2)s1 [Example 82, 4-((1S,2R)-2-((cyclopropylmethyl)amino)cyclopropyl)-N-(5-methyl-1,3,4-thiadiazol-2-yl)thiophene-2-carboxamide dihydrochloride] |  |  |  | concentration at 1 h [1, 3]: 170 ng/g; concentration at 1 h [1, 4]: 1330 ng/mL; Platelets, Mean ([2]; 1 mg/kg): 1399 10^3 cells; Red blood cells, Mean ([2]; 1 mg/kg): 899 10^4 cells; White blood cells, Mean ([2]; 1 mg/kg): 403 10 cells; Platelets, Mean ([2]; 10 mg/kg): 1445 10^3 cells; Red blood cells, Mean ([2]; 10 mg/kg): 926 10^4 cells; White blood cells, Mean ([2]; 10 mg/kg): 424 10 cells; Platelets, Mean ([2]; 100 mg/kg): 1411 10^3 cells; Red blood cells, Mean ([2]; 100 mg/kg): 903 10^4 cells; White blood cells, Mean ([2]; 100 mg/kg): 329 10 cells |
| Cc1nnc(NC(=O)c2cc([C@@H]3C[C@H]3NC3CCC3)cs2)s1 [Example 84, 4-((1S,2R)-2-(cyclobutylamino)cyclopropyl)-N-(5-methyl-1,3,4-thiadiazol-2-yl)thiophene-2-carboxamide dihydrochloride] |  |  |  | concentration at 1 h [1, 3]: 177 ng/g; Kp at 1 h ([1]; hippocampus/plasma, read-out: Ratio (hippocampus/plasma), Mean): 0.339; concentration at 1 h [1, 4]: 523 ng/mL; Platelets, Mean ([2]; 1 mg/kg, dihydrochloride): 1533 10^3 cells; Red blood cells, Mean ([2]; 1 mg/kg, dihydrochloride): 910 10^4 cells; White blood cells, Mean ([2]; 1 mg/kg, dihydrochloride): 370 10 cells; Platelets, Mean ([2]; 10 mg/kg, dihydrochloride): 1627 10^3 cells; Red blood cells, Mean ([2]; 10 mg/kg, dihydrochloride): 880 10^4 cells; White blood cells, Mean ([2]; 10 mg/kg, dihydrochloride): 339 10 cells; Platelets, Mean ([2]; 100 mg/kg, dihydrochloride): 1665 10^3 cells; Red blood cells, Mean ([2]; 100 mg/kg, dihydrochloride): 900 10^4 cells; White blood cells, Mean ([2]; 100 mg/kg, dihydrochloride): 313 10 cells |
| CCn1cc(NC(=O)c2csc([C@@H]3C[C@H]3NCC3CCOCC3)c2)cn1 [Example 86, N-(1-ethyl-1H-pyrazol-4-yl)-5-((1R,2R)-2-((tetrahydro-2H-pyran-4-ylmethyl)amino)cyclopropyl)thiophene-3-carboxamide dihydrochloride] | 87 µM | > 100 µM | < 0.1 µM |  |
| CC(=O)N1CCC(N[C@@H]2C[C@H]2c2cc(C(=O)NC3CCC(F)(F)CC3)cs2)CC1 [Example 91, 5-((1R,2R)-2-((1-acetylpiperidin-4-yl)amino)cyclopropyl)-N-(4,4-difluorocyclohexyl)thiophene-3-carboxamide hydrochloride] | > 100 µM | > 100 µM | < 0.1 µM |  |
| O=C(NC1CCC(F)(F)CC1)c1csc([C@@H]2C[C@H]2NC2CCN(C(=O)C3CC3)CC2)c1 [Example 92, 5-((1R,2R)-2-((1-(cyclopropylcarbonyl)piperidin-4-yl)amino)cyclopropyl)-N-(4,4-difluorocyclohexyl)thiophene-3-carboxamide hydrochloride] | > 100 µM | > 100 µM | < 0.1 µM |  |
| Cc1nnc(NC(=O)c2cc([C@@H]3C[C@H]3NCC3CCOCC3)c(C)s2)s1 [Example 97, 5-methyl-N-(5-methyl-1,3,4-thiadiazol-2-yl)-4-((1S,2R)-2-((tetrahydro-2H-pyran-4-ylmethyl)amino)cyclopropyl)thiophene-2-carboxamide hydrochloride] |  |  |  | concentration at 1 h [1, 3]: 194 ng/g; concentration at 1 h [1, 4]: 978 ng/mL; Platelets, Mean ([2]; 1 mg/kg): 1462 10^3 cells; Red blood cells, Mean ([2]; 1 mg/kg): 902 10^4 cells; White blood cells, Mean ([2]; 1 mg/kg): 377 10 cells; Platelets, Mean ([2]; 10 mg/kg): 1483 10^3 cells; Red blood cells, Mean ([2]; 10 mg/kg): 890 10^4 cells; White blood cells, Mean ([2]; 10 mg/kg): 366 10 cells; Platelets, Mean ([2]; 100 mg/kg): 1533 10^3 cells; Red blood cells, Mean ([2]; 100 mg/kg): 929 10^4 cells; White blood cells, Mean ([2]; 100 mg/kg): 332 10 cells |
| O=C(O)c1ccc(CN2CCC(CN[C@@H]3C[C@H]3c3cc(C(=O)NC4CCC(F)(F)CC4)cs3)CC2)cc1 [Example 101, 4-((4-((((1R,2R)-2-(4-((4,4-difluorocyclohexyl)carbamoyl)-2-thienyl)cyclopropyl)amino)methyl)piperidin-1-yl)methyl)benzoic acid dihydrochloride] | > 100 µM | > 100 µM | < 0.1 µM |  |
| O=C(O)c1ccc(CN[C@@H]2C[C@H]2c2cc(C(=O)NC3CCC(F)(F)CC3)cs2)cc1 [Example 110, 4-((((1R,2R)-2-(4-((4,4-difluorocyclohexyl)carbamoyl)-2-thienyl)cyclopropyl)amino)methyl)benzoic acid] | 49 µM | > 100 µM | < 0.1 µM |  |
| O=C(NC1CCOCC1)c1csc([C@@H]2C[C@H]2NCC2CCC2)c1 [Example 112, 5-((1R,2R)-2-((cyclobutylmethyl)amino)cyclopropyl)-N-(tetrahydro-2H-pyran-4-yl)thiophene-3-carboxamide] | > 100 µM | > 100 µM | < 0.1 µM |  |
